We go through 31 compounds from US9073830B2 (Hyundai Pharm Co., Ltd., priority 2011, dated 2015).

Bounds are passed on as bounds.

In general, IC50 refers to the concentration needed to halve the response being measured. The low end stands for inhibition by little substance, the high end for a need for much substance.

The target of one assay is T1, human 11β-HSD1 (Homo sapiens, UniProt P28845).
T1 construct: 100 ug/ml human/mouse liver microsomes; from tissue; host or cells: human liver microsomes
T1 sequence (P28845 whole entry): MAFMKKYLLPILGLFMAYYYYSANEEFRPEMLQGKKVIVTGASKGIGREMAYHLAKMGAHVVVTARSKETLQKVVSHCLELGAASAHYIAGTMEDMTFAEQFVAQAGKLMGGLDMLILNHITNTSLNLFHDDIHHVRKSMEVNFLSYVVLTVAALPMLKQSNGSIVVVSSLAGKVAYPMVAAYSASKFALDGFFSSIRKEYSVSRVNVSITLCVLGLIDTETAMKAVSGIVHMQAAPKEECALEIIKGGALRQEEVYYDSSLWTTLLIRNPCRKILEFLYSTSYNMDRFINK
Nature of the assay: Enzyme activity analysis on human 11β-HSD1 (HTRF cortisol, liver microsomes). Type of assay: biochemical. The conditions noted are these: first value of cell. As to the method: (§1) After culturing at 37° C. for 2 hours, 5 μl of cryptate-labeled anti-cortisol antibody and 5 μl of d2-labeled cortisol were added thereto. After further culturing at room temperature for 2 hours, a homogeneous time-resolved fluorescence (HTRF, Cisbio) signal was measured. From each analysis, based on a standard curve calculated using cortisols of several known concentrations, an amount of produced cortisol was tested.
(§2) While an amount of cortisol, produced without the compound, was used as a control, an inhibition percentage by the test compound, at each concentration, was calculated. By using an inhibition curve calculated by coordinates of inhibition percentage to test compound concentration, an IC50 value of the compound on 11β-HSD1 was obtained.
On the technique in general: TR-FRET usually uses a lanthanide donor and a delayed reading to cut background.

The target in another assay is T2, mouse 11β-HSD1 (Mus musculus, UniProt P50172).
T2 construct: 100 ug/ml human/mouse liver microsomes; from tissue; host or cells: mouse liver microsomes
T2 sequence (P50172 whole entry): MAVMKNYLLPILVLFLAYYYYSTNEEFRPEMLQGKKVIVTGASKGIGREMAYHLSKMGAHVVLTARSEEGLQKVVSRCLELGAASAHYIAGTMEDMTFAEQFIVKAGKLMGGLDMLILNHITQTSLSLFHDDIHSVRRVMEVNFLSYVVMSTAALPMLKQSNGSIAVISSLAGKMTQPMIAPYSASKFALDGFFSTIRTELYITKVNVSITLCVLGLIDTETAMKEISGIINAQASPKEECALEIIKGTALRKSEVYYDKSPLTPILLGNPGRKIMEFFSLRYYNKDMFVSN
As to the kind of experiment: Enzyme activity analysis on mouse 11β-HSD1 (HTRF cortisol, liver microsomes). As to conditions: second value of cell. The format is biochemical. As to the method:
as §1, §2

For the compound `NC(=O)C12CC3CC(C1)C(NC(=O)C1(NS(=O)(=O)c4ccccc4C(F)(F)F)CCCC1)C(C3)C2` (centres unmarked) [compound 172, N-4-(1-(2-trifluoromethylphenylsulfonamido)cyclopentanecarboxyamido)adamantane-1-carboxyamide], the figures for the 50% inhibitory concentration (IC50) at human 11β-HSD1 and against mouse 11β-HSD1 were 0.016 µM and 0.053 µM, respectively.

Take `CC(C)(NS(=O)(=O)c1ccc(Cl)cc1[N+](=O)[O-])C(=O)NC1C2CC3CC1CC(O)(C3)C2` (centres unmarked) [compound 79, N-(5-hydroxyadamantane-2-yl)-2-methyl-2-(4-chloro-2-nitrophenylsulfonamido)propanamide]: the values for the 50% inhibitory concentration (IC50) on human 11β-HSD1 and against mouse 11β-HSD1 were 0.083 µM and 0.797 µM, respectively.

Take `COc1ccc(S(=O)(=O)NC(C)(C)C(=O)NC2C3CC4CC(C3)CC2C4)c(OC)c1` (centres unmarked) [compound 47, N-(adamantane-2-yl)-2-methyl-2-(2,4-dimethoxyphenylsulfonamido)propanamide]: the results for the 50% inhibitory concentration (IC50) at human 11β-HSD1 and against mouse 11β-HSD1 were 0.082 µM and 1.92 µM, respectively.

Turning to `CCCN(C(C)(C)C(=O)NC1C2CC3CC1CC(C(N)=O)(C3)C2)S(=O)(=O)c1ccccc1C(F)(F)F` (centres unmarked) [compound 218, N-4-(2-(2-trifluoromethyl-N-propylphenylsulfonamido)-2-methylpropanamido)adamantane-1-carboxyamide], the IC50 against human 11β-HSD1 stood at 0.053 µM; on mouse 11β-HSD1 it was 0.462 µM.

On to `CN(C(C)(C)C(=O)NC1C2CC3CC1CC(C(N)=O)(C3)C2)S(=O)(=O)c1ccccc1Cl` (centres unmarked) [compound 190, N-4-(2-(2-chloro-N-methylphenylsulfonamido)-2-methylpropanamido)adamantane-1-carboxyamide], for which the IC50 was 0.002 µM against human 11β-HSD1 and 0.005 µM at mouse 11β-HSD1.

As to `CC(C)(NS(=O)(=O)c1ccc(F)cc1Cl)C(=O)NC1C2CC3CC(C2)CC1C3` (centres unmarked) [compound 55, N-(adamantane-2-yl)-2-methyl-2-(4-fluoro-2-chlorophenylsulfonamido)propanamide], the figures for the IC50 against human 11β-HSD1 and against mouse 11β-HSD1 were 0.039 µM and 0.186 µM, respectively.

As to `COc1cc([N+](=O)[O-])ccc1S(=O)(=O)NC(C)(C)C(=O)NC1C2CC3CC(C2)CC1C3` (centres unmarked) [compound 60, N-(adamantane-2-yl)-2-methyl-2-(4-nitro-2-methoxyphenylsulfonamido)propanamide], the figures for the IC50 on human 11β-HSD1 and on mouse 11β-HSD1 were 0.135 µM and 0.644 µM, respectively.

On to `CC(C)(NS(=O)(=O)c1ccccc1C(N)=O)C(=O)NC1C2CC3CC(C2)CC1C3` (centres unmarked) [compound 56], for which the IC50 is 0.532 µM against human 11β-HSD1 and > 2.5 µM against mouse 11β-HSD1.

For the compound `CN(C1(C(=O)NC2C3CC4CC2CC(C(N)=O)(C4)C3)CCC1)S(=O)(=O)c1ccccc1N` (centres unmarked) [compound 222, N-4-(1-(N-methyl-2-aminophenylsulfonamido)cyclobutanecarboxyamido)adamantane-1-carboxyamide], the IC50 on human 11β-HSD1 was 0.005 µM; against mouse 11β-HSD1 it was 0.004 µM.

For `CC(C)(NS(=O)(=O)c1ccc(Br)cc1OC(F)(F)F)C(=O)NC1C2CC3CC1CC(C(N)=O)(C3)C2` (centres unmarked) [compound 100, N-4-(2-(2-trifluoromethoxy-4-bromophenylsulfonamido)-2-methylpropanamido)adamantane-1-carboxyamide], the IC50 against human 11β-HSD1 is 0.018 µM; against mouse 11β-HSD1, 0.21 µM.

With `CC(C)(NS(=O)(=O)Cc1ccc(Cl)c(Cl)c1)C(=O)NC1C2CC3CC(C2)CC1C3` (centres unmarked) [compound 35, N-(adamantane-2-yl)-2-methyl-2-((3,4-dichlorophenyl)methylsulfonamido)propanamide], the IC50 against human 11β-HSD1 and against mouse 11β-HSD1 was > 2.5 µM each time.

Regarding `CNC(=O)C12CC3CC(C1)C(NC(=O)C(C)(C)NS(=O)(=O)c1ccccc1Cl)C(C3)C2` (centres unmarked) [compound 237, 4-[2-(2-chloro-benzenesulfonylamino)-2-methyl-propionylamino]-adamantane-1-carboxylic acid methylamide], the IC50 at human 11β-HSD1 stood at 1.5 µM; at mouse 11β-HSD1 it was 0.437 µM.

In the case of `CC(C)(NS(=O)(=O)c1ccc(OC(F)(F)F)cc1)C(=O)NC1C2CC3CC(C2)CC1C3` (centres unmarked) [compound 4, N-(adamantane-2-yl)-2-methyl-2-(4-(trifluoromethoxy)phenylsulfonamido)propanamide], the IC50 on human 11β-HSD1 came out at 1.32 µM; against mouse 11β-HSD1, 1.68 µM.

Consider `CC(C)(NS(=O)(=O)c1cc(Cl)cc(Br)c1)C(=O)NC1C2CC3CC1CC(C(N)=O)(C3)C2` (centres unmarked) [compound 125], for which the half-maximal inhibitory concentration (IC50) was found to be 0.021 µM on human 11β-HSD1 and 0.168 µM on mouse 11β-HSD1.

For `CC(C)(NS(=O)(=O)c1ccc(F)c(F)c1F)C(=O)NC1C2CC3CC1CC(C(N)=O)(C3)C2` (centres unmarked) [compound 116, N-4-(2-(2,3,4-trifluorophenylsulfonamido)-2-methylpropanamido)adamantane-1-carboxy amide], the figures for the IC50 at human 11β-HSD1 and against mouse 11β-HSD1 were 0.035 µM and 0.122 µM, respectively.

With `CC(C)(NS(=O)(=O)c1ccc(-c2ccccc2)cc1)C(=O)NC1C2CC3CC(C2)CC1C3` (centres unmarked) [compound 42, N-(adamantane-2-yl)-2-methyl-2-([1,1-biphenyl]-4-ylsulfonamido)propanamide], the half-inhibitory concentration (IC50) against human 11β-HSD1 turned out to be 1.8 µM; on mouse 11β-HSD1 it was 1.7 µM.

`Cc1ccc(F)c(S(=O)(=O)NC2(C(=O)NC3C4CC5CC3CC(C(N)=O)(C5)C4)CCC2)c1` (centres unmarked) [compound 164, N-4-(1-(2-fluoro-5-methylphenylsulfonamido)cyclobutanecarboxyamido)adamantane-1-carboxyamide]: the half-inhibitory concentration (IC50) against human 11β-HSD1 stood at 0.058 µM; on mouse 11β-HSD1, 0.298 µM.

For the compound `COc1ccc(OC)c(S(=O)(=O)NC(C)(C)C(=O)NC2C3CC4CC(C3)CC2C4)c1` (centres unmarked) [compound 48, N-(adamantane-2-yl)-2-methyl-2-(2,5-dimethoxyphenylsulfonamido)propanamide], the concentration for half-maximal inhibition (IC50) against human 11β-HSD1 stood at 0.02 µM; at mouse 11β-HSD1, 1.83 µM.

Take `CC(C)(NS(=O)(=O)c1ccc(Cl)cc1Cl)C(=O)NC1C2CC3CC1CC(C(N)=O)(C3)C2` (centres unmarked) [compound 88, N-4-(2-(2,4-dichlorophenylsulfonamido)-2-methylpropanamido)adamantane-1-carboxyamide]: the half-inhibitory concentration (IC50) against human 11β-HSD1 is 0.014 µM; on mouse 11β-HSD1, 0.056 µM.

Turning to `CC(C)(NS(=O)(=O)c1ccc([N+](=O)[O-])c(C(F)(F)F)c1)C(=O)NC1C2CC3CC1CC(C(N)=O)(C3)C2` (centres unmarked) [compound 113, N-4-(2-(3-trifluoromethyl-4-nitrophenylsulfonamido)-2-methylpropanamido)adamantane-1-carboxyamide], the IC50 is 0.208 µM against human 11β-HSD1 and 0.215 µM on mouse 11β-HSD1.

As to `Cc1ccc(S(=O)(=O)NC2(C(=O)NC3C4CC5CC3CC(C(N)=O)(C5)C4)CCC2)cc1F` (centres unmarked) [compound 151, N-4-(1-(3-fluoro-4-methylphenylsulfonamido)cyclobutanecarboxyamido)adamantane-1-carboxyamide], the values for the concentration for half-maximal inhibition (IC50) on human 11β-HSD1 and against mouse 11β-HSD1 were 0.182 µM and 0.062 µM, respectively.

For the compound `CN(C(C)(C)C(=O)NC1C2CC3CC1CC(C(N)=O)(C3)C2)S(=O)(=O)c1ccccc1C(F)(F)F` (centres unmarked) [compound 193, N-4-(2-(2-trifluoromethyl-N-methylphenylsulfonamido)-2-methylpropanamido)adamantane-1-carboxyamide], the IC50 against human 11β-HSD1 amounted to 0.007 µM; on mouse 11β-HSD1, 0.012 µM.

On to `Cc1ccc(F)cc1S(=O)(=O)NC(C)(C)C(=O)NC1C2CC3CC1CC(C(N)=O)(C3)C2` (centres unmarked) [compound 95, N-4-(2-(2-methyl-5-fluorophenylsulfonamido)-2-methylpropanamido)adamantane-1-carboxyamide], for which the IC50 at human 11β-HSD1 worked out at 0.013 µM; on mouse 11β-HSD1, 0.144 µM.

`CC(C)(NS(=O)(=O)c1cc(F)c(F)c(F)c1)C(=O)NC1C2CC3CC1CC(C(N)=O)(C3)C2` (centres unmarked) [compound 118, N-4-(2-(3,4,5-trifluorophenylsulfonamido)-2-methylpropanamido)adamantane-1-carboxy amide]: the IC50 against human 11β-HSD1 was found to be 0.116 µM; against mouse 11β-HSD1, 0.224 µM.

Take `CC(C)(NS(=O)(=O)c1ccc(C(F)(F)F)cc1)C(=O)NC1C2CC3CC1CC(C(N)=O)(C3)C2` (centres unmarked) [compound 126]: the IC50 against human 11β-HSD1 was determined as 0.182 µM; at mouse 11β-HSD1, 0.455 µM.

Take `CC(C)(NS(=O)(=O)c1cccc([N+](=O)[O-])c1)C(=O)NC1C2CC3CC(C2)CC1C3` (centres unmarked) [compound 66, N-(adamantane-2-yl)-2-methyl-2-(3-nitrophenylsulfonamido)propanamide]: the figures for the half-maximal inhibitory concentration (IC50) against human 11β-HSD1 and at mouse 11β-HSD1 were 0.511 µM and 0.914 µM, respectively.

On to `NC(=O)C12CC3CC(C1)C(NC(=O)C1(NS(=O)(=O)c4ccccc4C(F)(F)F)CCC1)C(C3)C2` (centres unmarked) [compound 157, N-4-(1-(2-trifluoromethylphenylsulfonamido)cyclobutanecarboxyamido)adamantane-1-carboxyamide], for which the IC50 at human 11β-HSD1 amounted to 0.061 µM; against mouse 11β-HSD1, 0.41 µM.

Turning to `Cc1ccc(S(=O)(=O)NC(C)(C)C(=O)NC2C3CC4CC(C3)CC2C4)cc1Cl` (centres unmarked) [compound 62, N-(adamantane-2-yl)-2-methyl-2-(4-methyl-3-chlorophenylsulfonamido)propanamide], the IC50 against human 11β-HSD1 was determined as 0.215 µM; at mouse 11β-HSD1, 0.686 µM.

For `CC(C)(NS(=O)(=O)c1ccc(Br)cc1)C(=O)NC1C2CC3CC1CC(C(N)=O)(C3)C2` (centres unmarked) [compound 124], the 50% inhibitory concentration (IC50) came out at 0.024 µM against human 11β-HSD1 and 0.22 µM against mouse 11β-HSD1.

In the case of `COc1ccc(S(=O)(=O)NC(C)(C)C(=O)NC2C3CC4CC(C3)CC2C4)cc1[N+](=O)[O-]` (centres unmarked) [compound 68, N-(adamantane-2-yl)-2-methyl-2-(4-methoxy-3-nitrophenylsulfonamido)propanamide], the figures for the IC50 against human 11β-HSD1 and against mouse 11β-HSD1 were 1.2 µM and 1.12 µM, respectively.

For the compound `CC(C)(NS(=O)(=O)CCc1cccc2ccccc12)C(=O)NC1C2CC3CC(C2)CC1C3` (centres unmarked) [compound 52, N-(adamantane-2-yl)-2-methyl-2-(2-(naphthalene-1-yl)ethylsulfonamido)propanamide], the IC50 was found to be 1.17 µM against human 11β-HSD1 and 2.14 µM at mouse 11β-HSD1.
